ChEMBL document CHEMBL1201862, “PubChem BioAssay data set” (2004)
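Assay format: 96-well plates, 48-hour exposure. Here, GI50 denotes the concentration required for 50% inhibition of growth.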 Activity calls are given as the source filed them. No stated cut-off is given here; in the data, active = GI50 up to about 1.1 µM and inactive = higher.

Assays:
Assay in all cases: inhibition of tumour cell growth, NCI panel, 48 h
[1] = system: COLO 205
[2] = system: NCI-H460
[3] = system: HCC 2998
[4] = system: EKVX
[5] = system: RPMI-8226
[6] = system: SF-295
[7] = system: K562
[8] = system: SK-MEL-2
[9] = system: SK-MEL-28
[10] = system: SF-268
[11] = system: UO-31
[12] = system: PC-3
[13] = system: HCT-116
[14] = system: MOLT-4
[15] = system: UACC-62
[16] = system: KM12
[17] = system: MCF7
[18] = system: Malme-3M
[19] = system: MDA-N

Structure (SMILES)	GI50 [1]	GI50 [2]	GI50 [3]	GI50 [4]	GI50 [5]	GI50 [6]	GI50 [7]	GI50 [8]	GI50 [9]	GI50 [10]	GI50 [11]	GI50 [12]	GI50 [13]	GI50 [14]	GI50 [15]	GI50 [16]	GI50 [17]	GI50 [18]	GI50 [19]
COc1ccc(-c2cc(-c3ccccc3)nc(/N=C\c3ccccc3)n2)c(O)c1	> 100 µM (inactive)	6.81 µM (inactive)	> 100 µM (inactive)	> 26.4 µM (inactive)	2.14 µM (inactive)	97.7 µM (inactive)	2.44 µM (inactive)	6.52 µM (inactive)	> 100 µM (inactive)	> 93.5 µM (inactive)	3.99 µM (inactive)	7 µM (inactive)	> 26.6 µM (inactive)	4.04 µM (inactive)	> 27.7 µM (inactive)	5.9 µM (inactive)	1.64 µM (inactive)	> 80.4 µM (inactive)	5.02 µM (inactive)
CC(C)CC1NC(=O)CCC(NC(=O)C(Cc2ccc(O)cc2)NC(=O)OCc2ccccc2)C(=O)NC(Cc2ccccc2)C(=O)NC(Cc2ccccc2)NC1=O (centres undefined)	> 100 µM (inactive)	> 100 µM (inactive)	> 100 µM (inactive)	> 100 µM (inactive)	> 100 µM (inactive)	> 100 µM (inactive)	> 100 µM (inactive)	> 100 µM (inactive)	> 100 µM (inactive)	> 100 µM (inactive)	> 100 µM (inactive)	> 100 µM (inactive)	> 100 µM (inactive)	> 100 µM (inactive)	> 100 µM (inactive)	> 100 µM (inactive)	> 100 µM (inactive)	> 100 µM (inactive)	> 100 µM (inactive)
NC(=O)NC1NC(=O)NC1=O (centres undefined) [ALLANTOIN]	> 100 µM (inactive)	> 100 µM (inactive)	> 100 µM (inactive)	> 100 µM (inactive)	> 100 µM (inactive)	> 100 µM (inactive)	> 100 µM (inactive)	> 100 µM (inactive)	> 100 µM (inactive)	> 100 µM (inactive)	6 µM (inactive)	> 100 µM (inactive)	> 100 µM (inactive)	> 100 µM (inactive)	> 100 µM (inactive)	> 100 µM (inactive)	> 100 µM (inactive)	> 100 µM (inactive)	> 100 µM (inactive)
CCc1nc(N)nc(N)c1-c1ccc(NC)c([N+](=O)[O-])c1	4.84 µM (inactive)	0.15 µM (active)	3.56 µM (inactive)	8.41 µM (inactive)	3.72 µM (inactive)	0.753 µM (active)	0.0631 µM (active)	21.2 µM (inactive)	43.7 µM (inactive)	0.815 µM (active)	7.93 µM (inactive)	0.804 µM (active)	0.219 µM (active)	1 µM (active)	0.531 µM (active)	2.76 µM (inactive)	2.48 µM (inactive)	24.8 µM (inactive)	0.173 µM (active)
CCCCn1c2c(n(CCCC)c1=[Se])-c1c(n(CCCC)c(=[Se])n1CCCC)S[Se][Se]S2	8.65 µM (inactive)	7.6 µM (inactive)	30.4 µM (inactive)	38.5 µM (inactive)	16.8 µM (inactive)	4.55 µM (inactive)	9.84 µM (inactive)	18 µM (inactive)	39.1 µM (inactive)	32.7 µM (inactive)	14.1 µM (inactive)	14.9 µM (inactive)	22.8 µM (inactive)	12.6 µM (inactive)	17.8 µM (inactive)	27.2 µM (inactive)	25.4 µM (inactive)	3.52 µM (inactive)	33.7 µM (inactive)
CS(=O)(=O)N1CC(CCl)c2ccc([N+](=O)[O-])cc21 (centres undefined)	> 100 µM (inactive)	38.2 µM (inactive)	> 100 µM (inactive)	> 100 µM (inactive)	> 100 µM (inactive)	> 100 µM (inactive)	> 100 µM (inactive)	> 100 µM (inactive)	> 100 µM (inactive)	> 100 µM (inactive)	> 100 µM (inactive)	> 100 µM (inactive)	> 100 µM (inactive)	> 100 µM (inactive)	> 100 µM (inactive)	> 100 µM (inactive)	> 100 µM (inactive)	> 100 µM (inactive)	> 100 µM (inactive)
